pIC50: −log10 of the molar value. Like-named read-outs stand apart in the source and are kept apart here.
Tests used:
[1] = system: formation of NO, measured as NO2− (nitrites); test: Inhibition of NO (nitrite) formation in rabbit joint chondrocytes stimulated by IL-1β; type: cell-based; settings: IL-1β 1 ng/ml, 48 hours, NO determined as nitrites
Procedure: (§1) a) The activity in inhibiting the formation of NO, measured as NO2^− (nitrites), PGE2, and neutral protease, was investigated in vitro on culture broths of rabbit joint chondrocytes stimulated by cytokine IL-1β (1 ng/ml) for 48 hours. For the preparation of the chondrocytes, the method described by Berenbaum et al [FEBS Letters 340, 51-55 (1994)] was followed. Briefly, fragments of cartilage removed under sterile conditions from the heads of rabbit shoulder, hip and knee joints were chopped finely and digested at 37° C. by hyaluronidase, trypsin and collagenase solutions, giving rise, after filtration on sterile gauze and centrifuging at 600×g and suitable dilution with 10% DMEM-FCS, to a concentration of approximately 1×10^5 cells per well. The cells were kept in these conditions until confluence (about 15 days), the broth being changed every 3 days. At this point, the products under test, dissolved in the medium, were added to each test sample and, after 20 minutes, 350 μl IL-1β was added in order to have a final concentration of 1 ng/ml. The duration of the stimulation was 48 hours at 37° C. (incubation air-CO2 7%). Measurement of the nitrites, as described by Green et al. [Anal. Biochem. 126, 131-138 (1982)], and of the PGE2s by RIA measurement, was then performed on the cell supernatant fluid. The measurement of the neutral proteases was performed in the cell supernatant fluid containing the p-aminophenyl mercury acetate (APMA) activator with the use of azocoll as the substrate and with incubation at 37° C. for 17 h as described by Chavira et al. [Anal. Biochem. 136, 446-450 (1984)]. In order to evaluate the direct inhibitory effect of the compounds under test on the hydrolytic activity of the cell supernatant fluid, they were added to the supernatant fluid containing the proteases induced by IL-1β and already activated by AMPA.
(§2) The results obtained are shown in Table 3, in which the IC50, that is, the concentration (micromolar) of antagonist which can inhibit the formation of nitrites, PGE2s, and neutral proteases, respectively, by 50% relative to the control group, that is, to the cells stimulated with IL-1β but without the addition of antagonists, is given for some of the compounds of the invention already given by way of example in Table 2.

formation of PGE2 = test: Inhibition of PGE2 formation in rabbit joint chondrocytes stimulated by IL-1β (RIA); type: cell-based; settings: IL-1β 1 ng/ml, 48 hours
Procedure: as §1, §2

[2] = system: neutral proteases (metalloproteases); test: Inhibition of neutral proteases (metalloproteases) in supernatant of IL-1β-stimulated rabbit joint chondrocytes, azocoll substrate; type: biochemical; settings: IL-1β 1 ng/ml, 48 hours, APMA-activated supernatant, read-out: MP (metalloproteases) IC50
Procedure: as §1, §2

[3] = system: colitis induced by TNBS in rats; test: Colitis induced by TNBS in rats; type: in vivo, rat; settings: for Weight of the colon: 48 hours after TNBS; for Weight of the colon / Myeloperoxidase activity / iNOS activity / Macroscopic damage (MDS): mean ± SD; for Myeloperoxidase activity / iNOS activity: colon tissue; for Macroscopic damage (MDS): score 0-10
From the text: The combined capability of some of the compounds of the invention to inhibit both iNOS and the synthesis of TNFα has led to their activity being checked in an experimental model of colitis caused by a chemical hapten, trinitrobenzene-sulphonic acid (TNBS), which can bind to the tissue proteins and stimulate cell-mediated immunity. The intrarectal administration of TNBS in association with ethanol causes acute inflammation characterised by extensive ulceration and necrosis.
A distal colitis was therefore induced in the rat by intrarectal instillation of TNBS (40 mg/kg) dissolved in 50% ethanol (0.5 ml/rat). The drugs were administered orally twice a day on days −2; −1; 0; +1 and the animals were killed 48 hours after the administration of TNBS.
The parameters examined were: total weight of the colon (g), macroscopic tissue damage “score”, measurement of the tissue myeloperoxidase (MPO) activity, which is a marker of the infiltration of the neutrophiles, and measurement of the iNOS activity (pmoles/g tissue/min.).
The macroscopic score (MDS) was taken on about 10 cm of colon in accordance with the following arbitrary scale:
The tissue MPO measurement was performed according to Velgara et al., JPET 1994. The measurement of the tissue nitrites was performed by applying the method described above for the chondrocytes to the supernatant fluid of the tissue homogenate.
Compound I-4, administered in doses of 5, 10 and 20 mg/kg, and compound I-11 were examined, by administering them orally, in comparison with sulphasalazine (250 mg/kg) and 5-aminosalicylic acid (5-ASA) (100 mg/kg), 2 drugs which are widely used in the treatment of ulcerative colitis.

[4] = system: extravasation in the ears of mice; test: Extravasation (Evans Blu) induced by phlogogenic agents in the ears of mice; type: in vivo
Procedure: b) Some of the compounds of the invention, such as compounds I-4, I-11 and I-31, were evaluated in vivo in a series of experimental extravasation models in which 5 μl of the preselected phlogogenic agent dissolved in physiological solution was injected intradermally into the ears of mice as described by Erdo et al., with slight modifications [Agents and Actions 39, 137-142 (1993)].
The products under test were administered orally 1 hour before the challenge and, 30 minutes before the challenge, the dye Evans Blu was injected intravenously in a dose of 100 mg/kg. The animals were killed at a time predetermined according to the test, 30 min.—2 hours after the challenge. The extravasation was evaluated by determining the quantity of dye present in the ear, extracted after homogenisation of the tissue in 2 ml of formamide and incubation at 50° C. for 2 hours. After centrifuging, the amount of dye was determined by measuring the absorption at 620 nm. The maximum % effect (% MPE) was calculated by the following formula:
[formula] in which EV is the mean absorption observed in the group of animals treated solely with the phlogogenic agent, ED is the group treated with the phlogogenic agent and the drug, and EB is the base value, that is, the value for the animals injected with physiological solution alone.
The phlogogenic agents used were:
Arachidonic acid (dissolved in EtOH); (1 mg/mouse; killed+30 min); histamine (3 nmoli/mouse; killed+30 min); PAF (30 pmoli/mouse; killed+60 min); Zymosan (10 μg/mouse; killed+120 min); bradykinin (0.6 nmoli/mouse; killed+30 min).

[5] = 250 mg/kg, non-statistically significant
[6] = OS, mouse ear, PAF, read-out: ED50, extravasation induced by PAF
[7] = Oryctolagus cuniculus, Chondrocyte

Row | pIC50 [1] | pIC50 (formation of PGE2) | pIC50 [2] | Compound | also measured
1 | 3.72 | 3.60 | 4.88 | CCCCNC(=S)Nc1ccc(NC(C)=N)cc1 [Compound I-3] | –
2 | 4.18 | – | – | CC(=N)Nc1ccc(NC(=S)Nc2ncc(C)s2)cc1 [Compound I-21] | –
3 | – | – | 4.52 | CNC(=S)Nc1ccc(NC(C)=N)cc1 [Compound I-1] | –
4 | 4.00 | 5.00 | 5.18 | CC(=N)Nc1ccc(NC(=S)Nc2ccccc2)cc1 [Compound I-13] | –
5 | 3.96 | 4.78 | 4.52 | CC(=N)Nc1ccc(NC(=S)NC2CCCCC2)cc1 [Compound I-11] | activity in TNBS colitis (in words) ([3]; 20 mg/kg): active; Weight of the colon ([3]; 20 mg/kg orally twice a day): 2.2 ± 0.3 g; Myeloperoxidase activity ([3]; 20 mg/kg orally twice a day): 6.5 ± 1.8 UMPO/g/min; iNOS activity ([3]; 20 mg/kg orally twice a day): 90.6 ± 45.6 pmol/g/min; Macroscopic damage (MDS) ([3]; 20 mg/kg orally twice a day): 4.3 ± 0.9(*)
6 | – | – | 4.70 | CCCCCCCNC(=S)Nc1ccc(NC(C)=N)cc1 [Compound I-6] | pIC50 [1, 7]: 4.52; pIC50 (formation of PGE2; [7]): 4.70; melting point: 177.8 to 178.4 °C
7 | 5.00 | 5.00 | 5.48 | CCCCCCNC(=S)Nc1ccc(NC(C)=N)cc1 [Compound I-5] | –
8 | 5.48 | 5.18 | 4.88 | CC(=N)Nc1ccc(NC(=S)NCCC(C)C)cc1 [Compound I-7] | –
9 | – | – | 4.52 | CCCNC(=S)Nc1ccc(NC(C)=N)cc1 [Compound I-2] | pIC50 [1, 7]: < 3.52; pIC50 (formation of PGE2; [7]): < 3.52; melting point: 188.1 to 189.1 °C
10 | – | – | 4.88 | CC(=N)Nc1ccc(NC(=S)NCc2ccccn2)cc1 [Compound I-19] | –
11 | 4.78 | 4.78 | 5.18 | CC(=N)Nc1ccc(NC(=S)NCCc2ccccn2)cc1 [Compound I-20] | –
12 | 4.00 | – | – | CCCCCC(=O)Nc1ccc(NC(C)=N)cc1 [Compound I-23] | –

Further lines, the molecule ahead of its results:

Row | Compound | pIC50 [1] | pIC50 (formation of PGE2) | pIC50 [2] | also measured
13 | CC(=N)Nc1ccc(NC(=S)NCCCc2ccccc2)cc1 [Compound I-15] | 4.48 | 4.78 | 5.18 | –
14 | O=C(O)c1cc(/N=N/c2ccc(S(=O)(=O)Nc3ccccn3)cc2)ccc1O [Sulphasalazine, sulphasalazine, reference compound] | – | – | – | Weight of the colon ([3]; 250 mg/kg orally twice a day): 2.5 ± 0.3 g; Myeloperoxidase activity ([3]; 250 mg/kg orally twice a day): 7.5 ± 5.5 UMPO/g/min; iNOS activity ([3]; 250 mg/kg orally twice a day): 100.8 ± 86.8 pmol/g/min; Macroscopic damage (MDS) ([3]; 250 mg/kg orally twice a day): 6.0 ± 2.9; effect on iNOS activity [3, 5]: about 50%; effect on macroscopic damage [3, 5]: about 20%
15 | CS(=O)(=O)Nc1ccc([N+](=O)[O-])cc1Oc1ccccc1 [Nimesulide, reference compound] | – | – | – | ED50 [4, 6]: > 40 mg/kg; ED50 ([4]; OS, mouse ear, arachidonic acid, read-out: ED50, extravasation induced by AA (arachidonic acid)): 41 mg/kg; times less active than Compound I-4 ([4]; antagonising AA): 2 times
16 | CC(=N)Nc1ccc(NC(=O)Cc2c[nH]c3ccccc23)cc1 [Compound I-27] | 5.00 | – | – | –
17 | CC(=N)Nc1ccc(NC(=S)NCCc2ccccc2)cc1 [Compound I-14] | 4.00 | 4.48 | 5.18 | –
18 | CC(=N)Nc1ccc(NC(=S)NCCc2c(F)cccc2F)cc1 [Compound I-18] | – | 5.18 | 5.18 | –
19 | Nc1ccc(O)c(C(=O)O)c1 [Compound 5-ASA, 5-aminosalicylic acid, reference compound] | – | – | – | activity on all of the parameters (in words) ([3]; 100 mg/kg): inactive; Weight of the colon ([3]; 100 mg/kg orally twice a day): 2.4 ± 0.4 g; Myeloperoxidase activity ([3]; 100 mg/kg orally twice a day): 7.9 ± 2.3 UMPO/g/min; iNOS activity ([3]; 100 mg/kg orally twice a day): 167.3 ± 106.5 pmol/g/min; Macroscopic damage (MDS) ([3]; 100 mg/kg orally twice a day): 6.9 ± 1.1
20 | CC(=N)Nc1ccc(NC(=S)NCCc2ccc(F)cc2)cc1 [Compound I-16] | 4.88 | 4.58 | 5.18 | –
21 | N=C(N)Nc1ccc(NC(=S)NC2CCCCC2)cc1 [Compound I-30, 1-guanidinophenyl-4-cyclohexyl Thiourea] | 5.18 | 5.00 | 4.88 | –
22 | CC(=N)Nc1ccc(NC(=O)NC2CCCCC2)cc1 [Compound I-29] | 4.60 | 5.18 | 4.60 | –
23 | CC(=N)Nc1ccc(NC(=S)NCCc2ccc(Cl)cc2)cc1 [Compound I-17] | 5.00 | 5.00 | 5.00 | –
24 | CC(=N)Nc1ccc(NC(=O)C23CC4CC(CC(C4)C2)C3)cc1 [Compound I-25] | – | 4.78 | – | –
25 | CN1C(C(=O)Nc2ccccn2)=C(O)c2ccccc2S1(=O)=O [Piroxicam, reference compound] | – | – | – | ED50 [4, 6]: 21.2 mg/kg; ED50 ([4]; OS, mouse ear, Zymosan, read-out: ED50, extravasation induced by Zymosan): 6.1 mg/kg
26 | CC(=N)Nc1ccc(NC(=O)C2CCCCC2)cc1 [Compound I-24] | 4.48 | 4.48 | – | –
27 | N=C(Nc1ccc(NC(=S)NC2CCCCC2)cc1)N[N+](=O)[O-] [Compound I-31] | 4.33 | 4.52 | 5.18 | ED50, extravasation induced by PAF ([4]; OS, mouse ear, PAF): 10.8 mg/kg; ED50, extravasation induced by Zymosan ([4]; OS, mouse ear, Zymosan): 10.5 mg/kg; ED50, extravasation induced by AA (arachidonic acid) ([4]; OS, mouse ear, arachidonic acid): 30.5 mg/kg
28 | CC(=N)Nc1ccc(NC(=O)c2cc3ccccc3n2C)cc1 [Compound I-28] | – | 4.00 | – | –
29 | CCC(=N)Nc1ccc(NC(=S)NC2CCCCC2)cc1 [Compound I-12] | – | 4.88 | 4.00 | –
30 | CC(=N)Nc1cccc(NC(=S)NC2CCCCC2)c1 [Compound I-32] | – | 3.52 | – | –

Source: patent US7560591B2, “Benzamidine derivatives having anti-inflammatory and immunosuppressive activity” (Rotta Research Laboratorium S.p.A., priority 2001, dated 2009)
